According to patent US12543736B2, “Herbicidal compositions comprising mesotrione” (BASF SE, priority 2024, dated 2026):

Legend:
Type in all cases: in vivo
[1] = tested on: Senecio vulgaris; test: Example 3 post-emergence field trial, SENVU; conditions: height 25-30 cm, 7 DAT
Protocol: (§1) In the examples below, using the method of S. R. Colby (1967) “Calculating synergistic and antagonistic responses of herbicide combinations”, Weeds 15, p. 22ff., the value E, which is expected if the activity of the individual active compounds is only additive, was calculated: [formula] • where • X=percent activity using active herbicide A at an application rate a; • Y=percent activity using active herbicide B (e.g. mesotrione) at an application rate b; • E=expected activity (in %) by A+B at application rates a+b. If the value found experimentally is higher than the value E calculated according to Colby, a synergistic effect is present. Evaluation was carried out using a scale from 0 to 100. 100 means no emergence of the plants, or complete destruction of at least the above-ground parts, and 0 means no damage or normal course of growth. A good herbicidal activity is given at values of at least 70, and very good herbicidal activity is given at values of at least 85. Post-Emergence Application of Herbicide A-1 (A-1) and Mesotrione (B) in Field Trials Herbicide A-1 (342 g/l) and mesotrione (100 g/l) were, together with addition of 0.5 v/v % MSO (methylated sed oil) as adjuvant, formulated in water as distribution medium (water volume 200 l/ha) and sprayed with commercial flat fan nozzles.

[2] = tested on: Digitaria sanguinalis; test: Example 3 post-emergence field trial, DIGSA; conditions: height 10-15 cm; for % herbicidal activity A-1 / % herbicidal activity B: 42 DAT
Protocol: as §1

[3] = tested on: Glycine max; test: Example 3 post-emergence field trial, GLXMA; conditions: height 7-11 cm
Protocol: as §1

[4] = tested on: Setaria verticillata; test: Example 3 post-emergence field trial, SETVE; conditions: height 8-16 cm; for % herbicidal activity A-1 / % herbicidal activity B: 42 DAT; for % herbicidal activity: g ai/ha: A-1 18, B 105
Protocol: as §1

[5] = tested on: Eleusine indica; test: Example 1 post-emergence greenhouse trial, ELEIN; conditions: growth stage 14, 21 DAT
Protocol: (§2) In the examples below, using the method of S. R. Colby (1967) “Calculating synergistic and antagonistic responses of herbicide combinations”, Weeds 15, p. 22ff., the value E, which is expected if the activity of the individual active compounds is only additive, was calculated: [formula] • where • X=percent activity using active herbicide A at an application rate a; • Y=percent activity using active herbicide B (e.g. mesotrione) at an application rate b; • E=expected activity (in %) by A+B at application rates a+b. If the value found experimentally is higher than the value E calculated according to Colby, a synergistic effect is present. The culture containers used were plastic pots containing loamy sand with approximately 3.0% of humus as substrate. The seeds of the test plants were sown separately for each species. For the post-emergence treatment, the test plants were grown to a plant height of from 3 to 15 cm, depending on the plant habit, and only then treated with the active compounds which had been suspended or emulsified in water. To this end, the test plants were either sown directly, and grown in the same containers, or they were first grown separately as seedlings and transplanted into the test containers a few days prior to treatment. Depending on the species, the plants were kept at 10-25° C. and 20-35° C., respectively. The test period extended over 2 to 4 weeks. During this time, the plants were tended and their response to the individual treatments was evaluated. Evaluation was carried out using a scale from 0 to 100. 100 means no emergence of the plants, or complete destruction of at least the above-ground parts, and 0 means no damage or normal course of growth. A good herbicidal activity is given at values of at least 70, and very good herbicidal activity is given at values of at least 85. Post-Emergence Application of Herbicide A-1 (A-1) and Mesotrione (B) in Greenhouse Trials Herbicide A-1 (50 g/l) and mesotrione (480 g/l) were, together with addition of 1 v/v % MSO (methylated sed oil) as adjuvant, formulated in water as distribution medium (water volume 200 l/ha) and sprayed with commercial flat fan nozzles.

[6] = tested on: Lolium multiflorum; test: Example 3 post-emergence field trial, LOLMU; conditions: height 20-25 cm
Protocol: as §1

[7] = tested on: Brachiaria decumbens; test: Example 1 post-emergence greenhouse trial, BRADC; conditions: growth stage 13, 21 DAT, g ai/ha: A-1 4, B 62.5
Protocol: (§3) In the examples below, using the method of S. R. Colby (1967) “Calculating synergistic and antagonistic responses of herbicide combinations”, Weeds 15, p. 22ff., the value E, which is expected if the activity of the individual active compounds is only additive, was calculated: [formula] • where • X=percent activity using active herbicide A at an application rate a; • Y=percent activity using active herbicide B (e.g. mesotrione) at an application rate b; • E=expected activity (in %) by A+B at application rates a+b. If the value found experimentally is higher than the value E calculated according to Colby, a synergistic effect is present. The culture containers used were plastic pots containing loamy sand with approximately 3.0% of humus as substrate. The seeds of the test plants were sown separately for each species. For the post-emergence treatment, the test plants were grown to a plant height of from 3 to 15 cm, depending on the plant habit, and only then treated with the active compounds which had been suspended or emulsified in water. To this end, the test plants were either sown directly, and grown in the same containers, or they were first grown separately as seedlings and transplanted into the test containers a few days prior to treatment. […] During this time, the plants were tended and their response to the individual treatments was evaluated. […]

[8] = tested on: Alopercurus myosuroides; test: Example 1 post-emergence greenhouse trial, ALOMY; conditions: growth stage 13, 21 DAT, g ai/ha: A-1 4, B 62.5
Protocol: as §3

[9] = tested on: Erigeron canadensis; test: Example 1 post-emergence greenhouse trial, ERICA; conditions: growth stage 18, 21 DAT
Protocol: as §2

[10] = tested on: Zea mays; test: Example 4 post-emergence application A-1, B and C-19, ZEAMX; conditions: growth stage 12, 21 DAT, g ai/ha: A-1 2, B 50, C-19 30
Protocol: In the examples below, using the method of S. R. Colby (1967) “Calculating synergistic and antagonistic responses of herbicide combinations”, Weeds 15, p. 22ff., the value E, which is expected if the activity of the individual active compounds is only additive, was calculated:
[formula] • where • X=percent activity using active herbicide A at an application rate a; • Y=percent activity using active herbicide B (e.g. mesotrione) at an application rate b; • E=expected activity (in %) by A+B at application rates a+b.
If the value found experimentally is higher than the value E calculated according to Colby, a synergistic effect is present.
Evaluation was carried out using a scale from 0 to 100. 100 means no emergence of the plants, or complete destruction of at least the above-ground parts, and 0 means no damage or normal course of growth. A good herbicidal activity is given at values of at least 70, and very good herbicidal activity is given at values of at least 85.
Post-Emergence Application of Herbicide A-1 (A-1), Mesotrione (B) and Pyroxasulfone (C-19)
Herbicide A-1 (342 g/l), mesotrione (100 g/l) and pyroxasulfone (500 g/l) were, together with addition of 0.5 v/v % MSO (methylated sed oil) as adjuvant, formulated in water as distribution medium (water volume 200 l/ha) and sprayed with commercial flat fan nozzles.

[11] = 7 DAT, g ai/ha: A-1 12.5, B 105
[12] = 21 DAT, g ai/ha: A-1 12.5, B 105
[13] = 7 DAT, g ai/ha: A-1 12.5, B 210

SMILES: CCOC(=O)COc1ccccc1Oc1nc(-n2c(=O)cc(C(F)(F)F)n(C)c2=O)c(F)cc1Cl [A-1, ethyl 2-[2-[[3-chloro-5-fluoro-6-[3-methyl-2,6-dioxo-4-(trifluoromethyl)pyrimidin-1-yl]-2-pyridyl]oxy]phenoxy]acetate]
- % herbicidal activity ([1]; g ai/ha: A-1 12.5, B 210): 85%
- % herbicidal activity ([1]; g ai/ha: A-1 18, B 210): 88%
- % herbicidal activity A-1 ([2]; A-1 12.5 g ai/ha): 65%
- % herbicidal activity A-1 ([2]; A-1 18 g ai/ha): 70%
- % herbicidal activity [2, 11]: 80%
- % herbicidal activity ([2]; 7 DAT, g ai/ha: A-1 18, B 105): 80%
- % herbicidal activity [2, 12]: 70%
- % herbicidal activity ([2]; 21 DAT, g ai/ha: A-1 18, B 105): 80%
- % herbicidal activity [3, 11]: 90%
- % herbicidal activity ([3]; 7 DAT, g ai/ha: A-1 18, B 105): 90%
- % herbicidal activity [3, 12]: 92%
- % herbicidal activity A-1 ([4]; A-1 12.5 g ai/ha (row with B 105)): 60%
- % herbicidal activity A-1 ([4]; A-1 12.5 g ai/ha (row with B 210)): 50%
- % herbicidal activity ([4]; 7 DAT): 80%
- % herbicidal activity ([4]; 21 DAT): 75%
- % herbicidal activity ([5]; g ai/ha: A-1 2, B 62.5): 95%
- % herbicidal activity ([5]; g ai/ha: A-1 4, B 62.5): 95%
- % herbicidal activity [6, 11]: 60%
- % herbicidal activity [6, 13]: 60%
- % herbicidal activity ([6]; 7 DAT, g ai/ha: A-1 18, B 105): 65%
- % herbicidal activity ([6]; 7 DAT, g ai/ha: A-1 18, B 210): 70%
- % herbicidal activity ([6]; 21 DAT, g ai/ha: A-1 18, B 210): 40%
- % herbicidal activity ([6]; 28 DAT, g ai/ha: A-1 18, B 210): 40%
- % herbicidal activity [7]: 98%
- % herbicidal activity [8]: 85%
- % herbicidal activity ([9]; g ai/ha: A-1 0.5, B 62.5): 60%
- % herbicidal activity ([9]; g ai/ha: A-1 1, B 62.5): 80%
- % herbicidal activity [10]: 40%

SMILES: CS(=O)(=O)c1ccc(C(=O)C2C(=O)CCCC2=O)c([N+](=O)[O-])c1 [B, mesotrione]
- % herbicidal activity ([1]; g ai/ha: A-1 12.5, B 210): 40%
- % herbicidal activity ([1]; g ai/ha: A-1 18, B 210): 40%
- % herbicidal activity B ([2]; B 105 g ai/ha): 55%
- % herbicidal activity B ([2]; B 210 g ai/ha): 70%
- % herbicidal activity [2, 11]: 50%
- % herbicidal activity ([2]; 7 DAT, g ai/ha: A-1 18, B 105): 50%
- % herbicidal activity [2, 12]: 65%
- % herbicidal activity ([2]; 21 DAT, g ai/ha: A-1 18, B 105): 65%
- % herbicidal activity [3, 11]: 55%
- % herbicidal activity ([3]; 7 DAT, g ai/ha: A-1 18, B 105): 55%
- % herbicidal activity [3, 12]: 45%
- % herbicidal activity B ([4]; B 105 g ai/ha): 30%
- % herbicidal activity B ([4]; B 210 g ai/ha): 20%
- % herbicidal activity ([4]; 7 DAT): 50%
- % herbicidal activity ([4]; 21 DAT): 35%
- % herbicidal activity ([5]; g ai/ha: A-1 2, B 62.5): 50%
- % herbicidal activity ([5]; g ai/ha: A-1 4, B 62.5): 50%
- % herbicidal activity [6, 11]: 30%
- % herbicidal activity [6, 13]: 30%
- % herbicidal activity ([6]; 7 DAT, g ai/ha: A-1 18, B 105): 30%
- % herbicidal activity ([6]; 7 DAT, g ai/ha: A-1 18, B 210): 30%
- % herbicidal activity ([6]; 21 DAT, g ai/ha: A-1 18, B 210): 30%
- % herbicidal activity ([6]; 28 DAT, g ai/ha: A-1 18, B 210): 30%
- % herbicidal activity [7]: 20%
- % herbicidal activity [8]: 0%
- % herbicidal activity ([9]; g ai/ha: A-1 0.5, B 62.5): 65%
- % herbicidal activity ([9]; g ai/ha: A-1 1, B 62.5): 65%
- % herbicidal activity [10]: 0%
